Measured values as given in ChEMBL document CHEMBL4368855, “Novel tricyclic glycal-based TRIB1 inducers that reprogram LDL metabolism in hepatic cells” (Medchemcomm, 2018).
≈ marks a conversion by molar mass, not a printed value.

Tests used:
[1] = Stability in mouse liver microsomes assessed as parent compound remaining at 1 uM incubated for 60 mins under shaking condition by UPLC/MS analysis; format: ADME, Microsome; conditions: read-out: Stability
[2] = Apparent volume of distribution in C57BL/6 mouse liver at 10 mg/kg, ip administered as single dose by mass spectrometry; format: ADME, organism-based; conditions: in vivo
[3] = tested on: HepG2; assay: Up regulation of TRIB1 gene expression in human HepG2 cells measured after 6 hrs by qRT-PCR analysis; format: functional, cell-based; conditions: HepG2, 6 h
[4] = Half life in C57BL/6 mouse liver at 10 mg/kg, ip administered as single dose by mass spectrometry; format: ADME, organism-based
[5] = Solubility of the compound in 1% DMSO/phosphate buffered saline at pH 7.4 incubated for 18 hrs under shaking condition by UPLC/MS analysis; format: physicochemical
[6] = Tmax in C57BL/6 mouse liver at 10 mg/kg, ip administered as single dose by mass spectrometry; format: ADME, organism-based
[7] = tested on: HepG2; assay: Down regulation of PCSK9 gene expression in human HepG2 cells measured after 24 hrs by qRT-PCR analysis; format: functional, cell-based; conditions: HepG2, 24 h
[8] = Clearance in C57BL/6 mouse plasma at 10 mg/kg, ip administered as single dose by mass spectrometry; format: ADME, organism-based
[9] = tested on: HepG2; assay: Up regulation of LDLR gene expression in human HepG2 cells measured after 6 hrs by qRT-PCR analysis relative to control; format: functional
[10] = Half life in C57BL/6 mouse plasma at 10 mg/kg, ip administered as single dose by mass spectrometry; format: ADME, organism-based
[11] = tested on: HepG2; assay: Up regulation of LDLR gene expression in human HepG2 cells measured after 6 hrs by qRT-PCR analysis; format: functional, cell-based; conditions: HepG2, 6 h
[12] = tested on: HepG2; assay: Up regulation of TRIB1 gene expression in human HepG2 cells measured after 6 hrs by qRT-PCR analysis relative to control; format: functional
[13] = Apparent volume of distribution in C57BL/6 mouse plasma at 10 mg/kg, ip administered as single dose by mass spectrometry; format: ADME, organism-based; conditions: in vivo
[14] = Cmax in C57BL/6 mouse liver at 10 mg/kg, ip administered as single dose by mass spectrometry; format: ADME, organism-based; design: dose 10 mg/kg, route intraperitoneal
[15] = Tmax in C57BL/6 mouse plasma at 10 mg/kg, ip administered as single dose by mass spectrometry; format: ADME, organism-based
[16] = AUC (infinity) in C57BL/6 mouse liver at 10 mg/kg, ip administered as single dose by mass spectrometry; format: ADME, organism-based; design: dose 10 mg/kg, route intraperitoneal, time infinity; conditions: in vivo
[17] = Cmax in C57BL/6 mouse plasma at 10 mg/kg, ip administered as single dose by mass spectrometry; format: ADME, organism-based; design: dose 10 mg/kg, route intraperitoneal
[18] = AUC (infinity) in C57BL/6 mouse plasma at 10 mg/kg, ip administered as single dose by mass spectrometry; format: ADME, organism-based; design: dose 10 mg/kg, route intraperitoneal, time infinity; conditions: in vivo
[19] = Unbound fraction in C57BL/6 mouse liver at 10 mg/kg, ip administered as single dose by mass spectrometry; format: ADME, organism-based
[20] = tested on: HepG2; assay: Induction of TRIB1 expression in human HepG2 cells measured after overnight incubation by qRT-PCR analysis; format: functional, cell-based

| Compound | remaining at 1 h, 1 µM [1] [%] | Vz [2] [L/kg] | EC50 [3] [nM] | half-life [4] [h] | solubility kinetic at 18 h [5] [µM] | Tmax [6] [h] | EC50 [7] [nM] | CL/F [8] [mL/min/kg] | max activation [9] | half-life [10] [h] | EC50 [11] [nM] | max activation [12] | Vz [13] [L/kg] | Cmax [14] [ng/mL] | Tmax [15] [h] | AUC [16] [µg/L/h] | Cmax [17] [ng/mL] | AUC [18] [µg/L/h] | fraction unbound [19] | EC50 [20] [nM] |
| --- | --- | --- | --- | --- | --- | --- | --- | --- | --- | --- | --- | --- | --- | --- | --- | --- | --- | --- | --- | --- |
| CN1C(=O)c2cc(NC(=O)c3ccc(C(F)(F)F)cc3)ccc2OC[C@@H]2O[C@H](CNc3nnc(C4CCC4)o3)CC[C@@H]21 | 18 | 0.72 | 320 | 1.78 | 27.5 (≈ 16.1 µg/mL) | 1 | 95 | 25.8 | 3.8 | 1.46 | 1450 | 4.6 | 3.25 | 13800 | 1 | 35928 | 3050 | 6464 | 0.02 |  |
| CN1C(=O)c2cc(NC(=O)c3ccc(C(F)(F)F)cc3)ccc2OC[C@@H]2O[C@H](CNC(=O)CC(C)(C)C)CC[C@@H]21 | 0 |  | 720 |  | 6 (≈ 3.37 µg/mL) |  | 100 |  | 1.9 |  | 500 | 6.6 |  |  |  |  |  |  |  |  |
| CN1C(=O)c2cc(NC(=O)c3ccc(C(F)(F)F)cc3)ccc2OC[C@H]2O[C@@H](CC(=O)NC3Cc4ccccc4C3)CC[C@@H]21 |  |  |  |  |  |  |  |  |  |  |  |  |  |  |  |  |  |  |  | > 25000 |
| CN1C(=O)c2cc(NC(=O)c3ccc(C(F)(F)F)cc3)ccc2OC[C@@H]2O[C@H](CNC(=O)[C@@H]3CCCO3)CC[C@@H]21 | 54 |  | 1100 |  | 90 (≈ 50.5 µg/mL) |  | 25 |  | 4.3 |  | 2450 | 3.7 |  |  |  |  |  |  |  |  |
